# Experimental data taken from PMC3510508, “Rbg1–Tma46 dimer structure reveals new functional domains and their role in polysome recruitment” (Nucleic Acids Research, 2012).
# T1: Rbg1fl–Tma46_205–345 (Saccharomyces cerevisiae, UniProt P39729)
# T1 construct: gene RBG1; 6His-tagged full-length Rbg1 (N-terminal tag) co-expressed in E. coli with Tma46 residues 205-345; heterodimer; with Translation machinery-associated protein 46
# T1 sequence (P39729 1-369): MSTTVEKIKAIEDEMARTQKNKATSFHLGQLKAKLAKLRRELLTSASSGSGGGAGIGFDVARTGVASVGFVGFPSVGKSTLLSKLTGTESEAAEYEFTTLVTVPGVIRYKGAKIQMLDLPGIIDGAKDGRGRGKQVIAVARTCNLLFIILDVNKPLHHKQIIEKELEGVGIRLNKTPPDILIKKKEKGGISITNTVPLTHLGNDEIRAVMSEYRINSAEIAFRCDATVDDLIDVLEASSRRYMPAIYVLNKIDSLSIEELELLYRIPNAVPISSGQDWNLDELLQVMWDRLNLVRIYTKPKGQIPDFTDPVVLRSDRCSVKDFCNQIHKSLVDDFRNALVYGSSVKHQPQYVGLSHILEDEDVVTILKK
# T1 sequence (Q12000 205-345 partner): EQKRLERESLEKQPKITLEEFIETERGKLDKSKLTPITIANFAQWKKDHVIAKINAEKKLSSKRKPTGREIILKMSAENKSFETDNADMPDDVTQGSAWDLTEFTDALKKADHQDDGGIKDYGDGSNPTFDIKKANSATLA
# T2: Drg1fl–Lerepo4_220–396 (Homo sapiens, UniProt Q9Y295)
# T2 construct: gene DRG1; recombinant full-length Drg1 with C-terminal Lerepo4 fragment; with Zinc finger CCCH domain-containing protein 15
# T2 sequence (Q9Y295 2-367): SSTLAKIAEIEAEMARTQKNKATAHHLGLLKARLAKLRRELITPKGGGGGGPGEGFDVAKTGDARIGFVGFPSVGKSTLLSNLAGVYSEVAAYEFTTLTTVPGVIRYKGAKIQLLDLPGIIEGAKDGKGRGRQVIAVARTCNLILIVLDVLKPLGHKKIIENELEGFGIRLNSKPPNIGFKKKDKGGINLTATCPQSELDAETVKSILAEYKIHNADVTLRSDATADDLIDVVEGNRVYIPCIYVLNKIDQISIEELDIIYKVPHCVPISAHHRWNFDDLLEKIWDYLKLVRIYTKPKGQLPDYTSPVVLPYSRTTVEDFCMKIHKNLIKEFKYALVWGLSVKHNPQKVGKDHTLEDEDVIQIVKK
# T2 sequence (Q8WU90 220-396 partner): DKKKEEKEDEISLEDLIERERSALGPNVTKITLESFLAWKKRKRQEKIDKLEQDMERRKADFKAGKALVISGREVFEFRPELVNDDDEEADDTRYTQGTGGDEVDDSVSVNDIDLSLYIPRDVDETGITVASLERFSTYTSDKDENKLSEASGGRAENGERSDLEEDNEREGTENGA
# T3: Rbg1fl–Tma46_205–345 (Saccharomyces cerevisiae, UniProt P39729)
# T3 construct: gene RBG1; 6His-tagged full-length Rbg1 (N-terminal tag) co-expressed in E. coli with Tma46 residues 205-345; heterodimer; with Translation machinery-associated protein 46
# T3 sequence (P39729 1-369): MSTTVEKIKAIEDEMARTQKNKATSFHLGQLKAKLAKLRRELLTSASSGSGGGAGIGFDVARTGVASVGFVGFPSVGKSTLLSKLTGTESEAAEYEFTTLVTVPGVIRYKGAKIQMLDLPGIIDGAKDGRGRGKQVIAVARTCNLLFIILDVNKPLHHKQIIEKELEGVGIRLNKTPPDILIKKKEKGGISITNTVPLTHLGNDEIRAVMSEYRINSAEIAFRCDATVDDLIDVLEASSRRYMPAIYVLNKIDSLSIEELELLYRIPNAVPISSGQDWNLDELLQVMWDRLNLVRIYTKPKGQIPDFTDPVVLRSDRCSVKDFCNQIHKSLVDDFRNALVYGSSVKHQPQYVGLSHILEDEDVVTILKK
# T3 sequence (Q12000 205-345 I241A partner): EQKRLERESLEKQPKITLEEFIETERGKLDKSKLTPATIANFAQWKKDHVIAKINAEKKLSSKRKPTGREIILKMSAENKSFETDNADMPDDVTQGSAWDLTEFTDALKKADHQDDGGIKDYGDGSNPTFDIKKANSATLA
# T4: Rbg1fl–Tma46_205–345 (Saccharomyces cerevisiae, UniProt P39729)
# T4 construct: gene RBG1; 6His-tagged full-length Rbg1 (N-terminal tag) co-expressed in E. coli with Tma46 residues 205-345; heterodimer; with Translation machinery-associated protein 46
# T4 sequence (P39729 1-369): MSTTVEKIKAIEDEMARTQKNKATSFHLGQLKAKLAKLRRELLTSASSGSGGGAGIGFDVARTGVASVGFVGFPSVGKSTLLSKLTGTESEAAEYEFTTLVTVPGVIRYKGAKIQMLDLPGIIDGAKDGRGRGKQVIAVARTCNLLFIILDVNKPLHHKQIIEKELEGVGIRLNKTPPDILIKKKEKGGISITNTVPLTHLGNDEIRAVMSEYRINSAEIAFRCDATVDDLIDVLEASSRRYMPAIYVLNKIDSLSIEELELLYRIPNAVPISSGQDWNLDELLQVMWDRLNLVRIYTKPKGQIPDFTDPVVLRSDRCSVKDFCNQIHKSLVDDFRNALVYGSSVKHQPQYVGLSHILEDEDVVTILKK
# T4 sequence (Q12000 205-345 W249A/K250E partner): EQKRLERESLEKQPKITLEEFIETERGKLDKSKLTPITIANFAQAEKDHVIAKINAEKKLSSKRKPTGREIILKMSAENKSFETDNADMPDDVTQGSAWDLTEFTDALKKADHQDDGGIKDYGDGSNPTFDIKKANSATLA
# T5: Rbg1fl–Tma46_205–345 (Saccharomyces cerevisiae, UniProt P39729)
# T5 construct: gene RBG1; 6His-tagged full-length Rbg1 (N-terminal tag) co-expressed in E. coli with Tma46 residues 205-345; heterodimer; with Translation machinery-associated protein 46
# T5 sequence (P39729 1-369): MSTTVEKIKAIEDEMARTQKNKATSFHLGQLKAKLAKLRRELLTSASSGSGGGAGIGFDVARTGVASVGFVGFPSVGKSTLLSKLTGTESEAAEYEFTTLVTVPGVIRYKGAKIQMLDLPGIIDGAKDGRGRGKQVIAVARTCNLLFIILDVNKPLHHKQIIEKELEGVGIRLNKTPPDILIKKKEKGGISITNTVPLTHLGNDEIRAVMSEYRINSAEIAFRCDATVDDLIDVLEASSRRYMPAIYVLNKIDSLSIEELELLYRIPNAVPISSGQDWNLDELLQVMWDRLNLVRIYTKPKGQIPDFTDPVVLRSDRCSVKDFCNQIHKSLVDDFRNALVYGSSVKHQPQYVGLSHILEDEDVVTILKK
# T5 sequence (Q12000 205-345 I241A/F246A partner): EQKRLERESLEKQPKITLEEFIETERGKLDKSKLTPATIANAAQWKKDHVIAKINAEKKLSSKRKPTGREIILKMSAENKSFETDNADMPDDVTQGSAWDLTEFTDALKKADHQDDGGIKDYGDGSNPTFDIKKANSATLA
# How the values were obtained:
# [1] = biological target: human Drg1 full length (human) (UniProt Q9Y295)
# Rbg1fl–Tma46_205–345 [2] = biological target: T1, Rbg1fl–Tma46_205–345; assay: thermal shift assay (Sypro Orange); format: binding; settings: 150 mM NaCl, 20 mM Tris pH 7.5, 2 mM DTT, ~0.05 mM protein
# Drg1fl–Lerepo4_220–396 = biological target: T2, Drg1fl–Lerepo4_220–396; assay: malachite green phosphate release; format: biochemical; settings: 100 mM KCl, 50 mM Tris pH 7.5, 5 mM MgCl2, 37°C, 1 h, 20 μM protein
# Text: malachite green phosphate release on Drg1fl–Lerepo4_220–396
# Rbg1fl–Tma46_205–345 [3] = biological target: T3, Rbg1fl–Tma46_205–345; assay: malachite green phosphate release; format: biochemical; settings: 100 mM KCl, 50 mM Tris pH 7.5, 5 mM MgCl2, 37°C, 1 h, 20 μM protein
# Text: (§1) malachite green phosphate release on Rbg1fl–Tma46_205–345
# Rbg1fl–Tma46_205–345 [4] = biological target: T4, Rbg1fl–Tma46_205–345; assay: malachite green phosphate release; format: biochemical; settings: 100 mM KCl, 50 mM Tris pH 7.5, 5 mM MgCl2, 37°C, 1 h, 20 μM protein; remark: listed apart in the source
# Text: as §1
# Rbg1fl–Tma46_205–345 [5] = biological target: T5, Rbg1fl–Tma46_205–345; assay: malachite green phosphate release; format: biochemical; settings: 100 mM KCl, 50 mM Tris pH 7.5, 5 mM MgCl2, 37°C, 1 h, 20 μM protein; remark: listed apart in the source
# Text: as §1
# [6] = substrate: Nc1nc2c(ncn2[C@@H]2O[C@H](COP(=O)(O)OP(=O)(O)OP(=O)(O)O)[C@@H](O)[C@H]2O)c(=O)[nH]1; assay: malachite green phosphate release; format: biochemical, Saccharomyces cerevisiae; settings: 100 mM KCl, 50 mM Tris pH 7.5, 5 mM MgCl2, 37°C, 1 h, 20 μM protein
# Text: malachite green phosphate release on Rbg1_1–294–Tma46_205–345 (ΔTGS)
molecule,measurement,setting,value
Lerepo4_(220–396) (from UniProt Q8WU90 220-396) (domain or fragment),"GTP hydrolysis (Malachite green), Vmax of the complex; free Drg1 showed significantly reduced activity (nmol min^−1 mg^−1)",[1],0.115
same,"GTP hydrolysis (Malachite green), kcat of the complex",[1],0.000123 s⁻¹
Nc1nc2c(ncn2[C@@H]2O[C@H](COP(=O)(O)OP(=O)(O)OP(O)(O)=S)[C@@H](O)[C@H]2O)c(=O)[nH]1 [GTPγS],increase in melting temperature,Rbg1fl–Tma46_205–345 [2]; 0.5 mM GTPγS in methods (0.2 mM also stated in Figure 4 legend),"increased melting temperature in the presence of the GDP, GTP or non-hydrolysable GTPγS"
Nc1nc2c(ncn2[C@@H]2O[C@H](COP(=O)(O)OP(=O)(O)O)[C@@H](O)[C@H]2O)c(=O)[nH]1 [GDP],increase in melting temperature,Rbg1fl–Tma46_205–345 [2]; 0.2 mM GDP,"increased melting temperature in the presence of the GDP, GTP or non-hydrolysable GTPγS"
Nc1nc2c(ncn2[C@@H]2O[C@H](COP(=O)(O)OP(=O)(O)OP(=O)(O)O)[C@@H](O)[C@H]2O)c(=O)[nH]1 [GTP],increase in melting temperature,Rbg1fl–Tma46_205–345 [2]; 0.2 mM GTP,"increased melting temperature in the presence of the GDP, GTP or non-hydrolysable GTPγS"
same,Km,Drg1fl–Lerepo4_220–396,319 ± 35 µM
same,Km,Rbg1fl–Tma46_205–345 [3],186 ± 34.5 µM
same,Km,Rbg1fl–Tma46_205–345 [4],426 ± 52.6 µM
same,Km,Rbg1fl–Tma46_205–345 [5],429 ± 94.7 µM
"Rbg1_1–294–Tma46_205–345 (ΔTGS) (Saccharomyces cerevisiae S288C) (protein, 6His-tagged Rbg1 lacking TGS domain (residues 1-294), co-expressed in E. coli with Tma46 205-345; with Translation machinery-associated protein 46) MSTTVEKIKAIEDEMARTQKNKATSFHLGQLKAKLAKLRRELLTSASSGSGGGAGIGFDVARTGVASVGFVGFPSVGKSTLLSKLTGTESEAAEYEFTTLVTVPGVIRYKGAKIQMLDLPGIIDGAKDGRGRGKQVIAVARTCNLLFIILDVNKPLHHKQIIEKELEGVGIRLNKTPPDILIKKKEKGGISITNTVPLTHLGNDEIRAVMSEYRINSAEIAFRCDATVDDLIDVLEASSRRYMPAIYVLNKIDSLSIEELELLYRIPNAVPISSGQDWNLDELLQVMWDRLNLV",Km,[6],426.3 ± 165 µM
same,Vmax,[6],1.66e-05 µmol/min/mg
same,kcat,[6],1.33e-05 s⁻¹
